The conditions of data set [1]: human, in vivo.
Data set [2] is classed as in vitro ADME. As to conditions: human EDTA plasma QC samples.
Data set [3] is described as follows: Polymyxin B1 and B2 plasma levels in further patient samples. Particulars: human, in vivo, iv.

Read-outs that look alike come from different tables or passages of the source. Bridge positions count the residues as written; N and C are the ends. Square brackets hold non-standard residues; d marks the D form. Peptide text beside a SMILES is read from it. * marks the point of attachment. Heptanoyl(6-Me) = CC(C)CCCCC(=O)*; X1 = CC[C@H](C)CCCCC(=O)*; Dab = NCC[C@H](N)C(=O)O

For `CC[C@H](C)CCCCC(=O)N[C@@H](CCN)C(=O)N[C@H](C(=O)N[C@@H](CCN)C(=O)N[C@H]1CCNC(=O)[C@H]([C@@H](C)O)NC(=O)[C@H](CCN)NC(=O)[C@H](CCN)NC(=O)[C@H](CC(C)C)NC(=O)[C@@H](Cc2ccccc2)NC(=O)[C@H](CCN)NC1=O)[C@@H](C)O` [polymyxin B1] (X1-[Dab]T[Dab][Dab][Dab][dF]L[Dab][Dab]T; lactam 4-C), in data set [1] (female, iv, 1.5 mg/kg), the highest level (Cmax) was 4830 ng/mL; the half-life (as a rule, how long it takes for the measured level to halve) is 4.7 h; the level at 0 h amounted to 1400 ng/mL; the level at 12 h worked out at 1080 ng/mL. Also, the “Stability during repetitive freeze-thaw cycles” value in data set [2] is “at least three repetitive freeze-thaw cycles”. In addition, in data set [2] (4°C), the “Time stable at 4°C” value is “at least 72 h”. In addition, the “Time stable at room temperature” value in data set [2] (22°C) is reported as “at least 24 h”. Further, the “Time stable at −80°C” value in data set [2] (−80°C) is on record as “at least 3 months”.
Compound `CC(C)CCCCC(=O)N[C@@H](CCN)C(=O)N[C@H](C(=O)N[C@@H](CCN)C(=O)N[C@H]1CCNC(=O)[C@H]([C@@H](C)O)NC(=O)[C@H](CCN)NC(=O)[C@H](CCN)NC(=O)[C@H](CC(C)C)NC(=O)[C@@H](Cc2ccccc2)NC(=O)[C@H](CCN)NC1=O)[C@@H](C)O` [polymyxin B2] ({Heptanoyl(6-Me)}-[Dab]T[Dab][Dab][Dab][dF]L[Dab][Dab]T; lactam 4-C) had a half-life in data set [1] (female, iv) of 5.4 h. In data set [1] (female, iv, 1.5 mg/kg), this compound came in with a level at 0 h of 252 ng/mL and a level at 12 h of 214 ng/mL. In data set [1], the “Ratio of polymyxin B2 to polymyxin B1+polymyxin B2 in plasma, mean” value is 0.15 and the “Ratio of polymyxin B2 to polymyxin B1+polymyxin B2 in plasma, range” value is 0.13-0.16. Besides, in data set [3], the “Plasma concentration of the patient sample of Figure 1E/F” value is listed as 322 ng/mL.

Source of the values: publication PMC3394890 (Therapeutic Drug Monitoring, 2012).
